Results: US7595294B2, “Vasoactive intestinal polypeptide pharmaceuticals” (Transition Therapeutics, Inc., priority 2004, dated 2009)
Where no end group is shown, it is not given here.

Legend:
[1] = system: db/db mice; test: In vivo bioassay: blood glucose in db/db mice after intraperitoneal injection; conditions: for Mean Blood Glucose Levels: i.p.; for Activity (reduced plasma glucose), in words: high dose
Procedure: Tested Study Groups. Naïve, 8 weeks old female db/db mice were acclimated for one week, during which period animals were handled periodically to allow them to be acclimated to experiment procedures. Study groups contained 6 mice per group and were administered with one of the following by intraperitoneal injection:
(2) Positive control (exendin-4 or other standard treatment);
(3) Polypeptide Analog at high dose; or
(4) Polypeptide Analog at low dose.
A small volume of blood was taken from a cut at the tip of tail for blood sampling. Blood glucose levels were determined on a commercial, hand-held glucose meter. On Day 1, animals were injected with polypeptide analogs and controls in the morning. Blood samples were taken and analyzed immediately before injection and at 2, 4, 8, 14, and 24 hours after injection. Animals were allowed to feed, ad libitem, throughout the assay (Tsutsumi et al., Diabetes 51:1453-60 (2002)).

[2] = system: Rat islets; test: In vitro bioassay with islet cell static cultures (insulin secretion, ELISA); type: cell-based; conditions: for Insulin secreted: Table 2, 120 min incubation; for Concentration at which maximal activity was exhibited in the assay: islet static culture, insulin secretion; for Average Insulin secreted: Table 3
Procedure: Islet isolation. […] Generally, the islets were prepared by injecting collagenase (10 mL of 0.23 mg/mL Liberase, Roche Molecular Biochemicals, Indianapolis, Ind.) into the pancreatic duct of the partially dissected pancreas and surgically removing it. All procedures were approved by the Institutional Animal Care and Use Committee at the University of Washington.
The pancreata were placed into 15 mL conical tubes containing 5 mL of 0.23 mg/mL Liberase and incubated at 37° C. for 30 min. The digestate was then filtered through a 400-micrometer stainless steel screen, rinsed with Hanks' buffered salt solution, and purified in a gradient solution of Optiprep (Nycomed, Oslo, Norway).
Bioassay. Islets were picked under a microscope and placed into 10 ml 3 mM Krebs Ringer Buffer (KRB) solution for washing. Islets were incubated in 3 mM glucose KRB for 60 min and then groups of 10 islets per well were placed into 200 μl media in a 96-well plate. […] The buffer conditions were KRB with 0.1% BSA, 20 mM HEPES and the assay was performed in quadruplicate. Supernatants were evaluated for insulin content using a commercial insulin enzyme-linked immunosorbent (ELISA) assay per manufacturer's directions.

[3] = High dose, 0 hr (immediately before injection)
[4] = High dose, 2 hr after injection
[5] = High dose, 4 hr after injection
[6] = High dose, 8 hr after injection
[7] = High dose, 14 hr after injection
[8] = High dose, 24 hr after injection
[9] = Low dose, 0 hr (immediately before injection)
[10] = Low dose, 14 hr after injection
[11] = Low dose, 24 hr after injection

TP-103: exemplary synthetic polypeptide analog of PACAP/VIP, amino acid sequence SEQ ID NO: 2 (HSDAVFTDNYTRLRKQVAAKKYLNSIKKGKRELLEKLLRKLK; ends and bridges not checked)
Mean Blood Glucose Levels [1, 3]: 20.7 mmol/L | Mean Blood Glucose Levels [1, 4]: 17.3 mmol/L | Mean Blood Glucose Levels [1, 5]: 16.9 mmol/L | Mean Blood Glucose Levels [1, 6]: 23.4 mmol/L | Mean Blood Glucose Levels [1, 7]: 23.7 mmol/L | Mean Blood Glucose Levels [1, 8]: 25.0 mmol/L | Mean Blood Glucose Levels [1, 9]: 22.9 mmol/L | Mean Blood Glucose Levels ([1]; Low dose, 2 hr after injection): 20.5 mmol/L | Mean Blood Glucose Levels ([1]; Low dose, 4 hr after injection): 17.6 mmol/L | Mean Blood Glucose Levels ([1]; Low dose, 8 hr after injection): 26.4 mmol/L | Mean Blood Glucose Levels [1, 10]: 24.6 mmol/L | Mean Blood Glucose Levels [1, 11]: 21.4 mmol/L

TP-106: highly hydrophobic polypeptide analog, designed to depot in the site of sc injection; SEQ ID NO: 5 (HSDAVFTDNYTRLRKQVAAKKYLNSIKKGKRELLEKLK)
Insulin secreted ([2]; 50 nM peptide + 16 mM glucose): 2.72 ng/100 islets/min | Insulin secreted ([2]; 200 nM peptide + 16 mM glucose): 5.20 ng/100 islets/min | Concentration at which maximal activity was exhibited in the assay [2]: 200 nM | Mean Blood Glucose Levels [1, 3]: 21.8 mmol/L | Mean Blood Glucose Levels [1, 4]: 13.4 mmol/L | Mean Blood Glucose Levels [1, 5]: 14.7 mmol/L | Mean Blood Glucose Levels [1, 6]: 25.1 mmol/L | Mean Blood Glucose Levels [1, 7]: 26.3 mmol/L | Mean Blood Glucose Levels [1, 8]: 21.2 mmol/L | Mean Blood Glucose Levels [1, 9]: 23.9 mmol/L | Mean Blood Glucose Levels ([1]; Low dose, 2 hr after injection): 20.5 mmol/L | Mean Blood Glucose Levels ([1]; Low dose, 4 hr after injection): 16.1 mmol/L | Mean Blood Glucose Levels ([1]; Low dose, 8 hr after injection): 24.0 mmol/L | Mean Blood Glucose Levels [1, 10]: 28.2 mmol/L | Mean Blood Glucose Levels [1, 11]: 23.2 mmol/L | Activity (reduced plasma glucose), in words ([1]; 2 hr after injection): statistically significant activity | Activity (reduced plasma glucose), in words ([1]; 4 hrs post dosing): maintains activity

TP-107: exemplary synthetic polypeptide analog of PACAP/VIP, amino acid sequence SEQ ID NO: 6 (HSDAVFTDNYTRLRKQVAAKKYLNWIKKAKRELLEKLK; ends and bridges not checked)
Average Insulin secreted ([2]; 10 nM peptide + 16 mM glucose): 2.89 ng/100 islets/min | Average Insulin secreted ([2]; 100 nM peptide + 16 mM glucose): 6.10 ng/100 islets/min | Average Insulin secreted ([2]; 1 uM peptide + 16 mM glucose): 6.07 ng/100 islets/min | Concentration at which maximal activity was exhibited in the assay [2]: 100 nM

TP-108: exemplary synthetic polypeptide analog of PACAP/VIP, amino acid sequence SEQ ID NO: 7 (HSDAVFTDNYTRLRKQLAAKKYLNSIKKGKRLLRKLQPPPK; ends and bridges not checked)
Average Insulin secreted ([2]; 100 nM peptide + 16 mM glucose): 4.10 ng/100 islets/min | Average Insulin secreted ([2]; 1 uM peptide + 16 mM glucose): 5.65 ng/100 islets/min
